Key:
HMwFabG (ABO12488.2) = target: T1, HMwFabG (ABO12488.2) (Acinetobacter baumannii, UniProt A0A219C8F5); assay: coenzyme oxidation, absorbance at […] nm; format: biochemical; conditions: 200 µM NADH, 500 µM acetoacetyl-CoA, 20 mM HEPES pH 7.4, 125 mM NaCl, 37 °C, 30 min
T1 construct: gene fabG_9; codon-optimised gene in pMCSG21, E. coli BL21(DE3) pLysS; N-terminal 6-His tag cut by TEV; 463 residues, 48 kDa protomer, homodimer
T1 sequence (A0A219C8F5 1-463): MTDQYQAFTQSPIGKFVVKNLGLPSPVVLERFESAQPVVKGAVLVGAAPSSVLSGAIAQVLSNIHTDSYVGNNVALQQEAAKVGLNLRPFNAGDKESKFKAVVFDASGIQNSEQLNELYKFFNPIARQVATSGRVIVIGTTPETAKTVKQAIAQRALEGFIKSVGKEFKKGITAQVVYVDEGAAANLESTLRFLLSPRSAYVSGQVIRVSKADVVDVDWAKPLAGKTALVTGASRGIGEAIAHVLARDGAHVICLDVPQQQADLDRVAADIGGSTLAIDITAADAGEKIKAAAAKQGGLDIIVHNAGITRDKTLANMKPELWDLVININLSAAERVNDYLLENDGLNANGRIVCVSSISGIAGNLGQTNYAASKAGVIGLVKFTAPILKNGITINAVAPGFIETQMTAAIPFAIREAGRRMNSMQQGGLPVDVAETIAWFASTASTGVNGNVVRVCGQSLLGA

FabG (ABO11256.2) [1] = target: T2, FabG (ABO11256.2) (Acinetobacter baumannii, UniProt V5VHN7); assay: X-ray crystal structure of co-crystal, […] Å; format: binding; conditions: co-crystallised at 1:10 protein to coenzyme, 0.1 M Tris pH 8.0, 2 M ammonium sulphate; coenzyme site
T2 construct: codon-optimised gene in pMCSG21, E. coli BL21(DE3) pLysS; N-terminal 6-His tag cut by TEV; 244 residues, 26 kDa protomer, homotetramer about 100 kDa
T2 sequence (V5VHN7 1-244): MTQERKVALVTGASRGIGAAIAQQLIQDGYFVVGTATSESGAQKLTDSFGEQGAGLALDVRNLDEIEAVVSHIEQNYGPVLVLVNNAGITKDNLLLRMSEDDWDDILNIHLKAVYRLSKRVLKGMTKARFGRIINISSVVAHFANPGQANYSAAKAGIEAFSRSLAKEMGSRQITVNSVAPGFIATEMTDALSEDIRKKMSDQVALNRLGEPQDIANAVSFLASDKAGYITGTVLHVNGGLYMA

FabG (ABO11256.2) [2] = target: T2, FabG (ABO11256.2); assay: coenzyme oxidation, absorbance at […] nm; format: biochemical; conditions: 500 µM acetoacetyl-CoA, 200 µM NADPH, 20 mM HEPES pH 7.4, 125 mM NaCl, 37 °C, 30 min

| SMILES | coenzyme oxidation, absorbance at 340 nm (HMwFabG (ABO12488.2)) | X-ray crystal structure of co-crystal, 1.85 Å (FabG (ABO11256.2) [1]) | coenzyme oxidation, absorbance at 340 nm (FabG (ABO11256.2) [2]) |
| --- | --- | --- | --- |
| NC(=O)C1=CN([C@@H]2O[C@H](COP(=O)(O)OP(=O)(O)OC[C@H]3O[C@@H](n4cnc5c(N)ncnc54)[C@H](O)[C@@H]3O)[C@@H](O)[C@H]2O)C=CC1 [NADH] | Our enzyme assays showed clear preference for NADH as the catalytic coenzyme | – | – |
| NC(=O)C1=CN([C@@H]2O[C@H](COP(=O)(O)OP(=O)(O)OC[C@H]3O[C@@H](n4cnc5c(N)ncnc54)[C@H](OP(=O)(O)O)[C@@H]3O)[C@@H](O)[C@H]2O)C=CC1 [NADPH] | – | strong positive density allowing NADPH to be modelled within each protomer | – |
| CC(=O)CC(=O)SCCNC(=O)CCNC(=O)[C@H](O)C(C)(C)COP(=O)(O)OP(=O)(O)OC[C@H]1O[C@@H](n2cnc3c(N)ncnc32)[C@H](O)[C@@H]1OP(=O)(O)O [acetoacetyl-CoA] | Enzyme activity of HMwFabG with acetoacetyl-CoA | – | enzyme assays were conducted in the presence of a substrate mimic, acetoacetyl-CoA |
